Reference: patent publication US4174404A, “Deoxynarasin antibiotics” (Eli Lilly and Company, priority 1978, dated 1979)
In brackets after ≈: the same amount, converted by molar mass. Where a name gives a salt, the structure may show the parent alone.

Columns and labels:
Eimeria tenella [1] = assay: feeding experiment in young chickens challenged with Eimeria tenella; type: in vivo; details: 100 ppm in the diet, chicks challenged with Eimeria tenella, Na salt
Excerpt: A feeding experiment in young chickens confirms that the deoxynarasin antibiotics have anticoccidial activity in vivo.

rumen flora = assay: in vitro rumen volatile-fatty-acid (VFA) test; design: species or system ruminants
Excerpt: As discussed, efficiency of carbohydrate utilization in ruminants is increased by treatments which stimulate the animal's rumen flora to produce propionate compounds rather than acetate or butyrate compounds. The efficiency of feed use can be monitored by observing the production and concentration of propionate compounds in rumen fluid, using methods as described in U.S. Pat. No. 4,038,384.
Results of in vitro tests with 20-deoxynarasin (Na salt) and 20-deoxy-epi-17-narasin (free acid), showing the ratio of volatile-fatty-acid (VFA) concentrations in treated flasks to concentrations in control flasks, are shown in Table VIII.

solubility = type: physicochemical; details: for solubility in nonpolar organic solvents: nonpolar organic solvents such as hexane; for solubility in organic solvents: organic solvents (methanol, ethanol, dimethylformamide, dimethyl sulfoxide, ethyl acetate, chloroform, acetone, benzene)
Excerpt: The deoxynarasin antibiotic complex comprises 20-deoxynarasin and 20-deoxy-epi-17-narasin which are obtained from the fermentation as a mixture. 20-Deoxynarasin and 20-deoxy-epi-17-narasin are separated from the deoxynarasin complex and isolated as individual compounds as hereinafter described. The deoxynarasin complex also contains minor factors which are removed by the procedures described. The deoxynarasin antibiotic complex is soluble in most organic solvents, but is insoluble in water.
(§1) For example, 20-deoxynarasin acid (435.1 mg) was dissolved in methanol (40 ml) and allowed to stand at room temperature for four hours. The solution was then evaporated to dryness under vacuum; the residue was redissolved in dioxane and lyophilized to give 417.8 mg of 20-deoxy-epi-17-narasin acid.

stability in alcohols = type: physicochemical; details: converts to 20-deoxy-epi-17-narasin free acid (methanol, room temperature, four hours)
Method: as §1

mice = assay: acute toxicity, intraperitoneal, mice; type: in vivo; details: intraperitoneally to mice
Eimeria tenella [2] = assay: in vitro anticoccidial activity; type: cell-based
Excerpt: Anticoccidial activity is an important property of the deoxynarasin antibiotics of this invention.

[3] = target: cation transport ATPase in liver mitochondria; assay: in vitro ATPase inhibition; type: biochemical
Excerpt: In yet another aspect, 20-deoxynarasin and its salts are active as an inhibitor of the enzyme ATPase. ATPase, an alkali-metal-sensitive enzyme found in cell membranes, is involved in the energy necessary for active transport. "Active transport" refers to the energy-requiring series of operations whereby intracellular and extracellular fluids maintain their compositions. Inhibitors of ATPase reduce the energy required for active transport. In vitro tests have shown that 20-deoxynarasin (Na salt) inhibits cation transport ATPase in liver mitochondria at a half effective concentration of 0.065 mcg/ml.

[4] = tested on: isolated guinea-pig atria; assay: isolated guinea-pig atria contractility; type: cell-based; details: Cavia porcellus; 10^-5 molar; percentage of maximal contractile tension elicited by norepinephrine challenge; n=4; read-out: mean (± standard error) increase in contractile tension
Excerpt: 20-Deoxynarasin and its salts are also potential cardiotonic agents. In tests using isolated guinea-pig atria, for example, 20-deoxynarasin increased cardiac contractility. Response to this test is expressed as a percentage of the maximal contractile tension that could be elicited by a challenge dose of norepinephrine (10^-4)M). 20-Deoxynarasin (Na salt), at a 10^-5 molar concentration, produced a mean (± standard error) increase in contractile tension of 43.8±1.4 (n=4) percent. For a more detailed description of this test, see U.S. Pat. No. 3,985,893.

Diplococcus pneumoniae = assay: disc-diffusion method, zone of inhibition; type: cell-based; details: Streptococcus pneumoniae
Excerpt: (§2) The deoxynarasin antibiotics of this invention are antibacterial agents. For example, the relative microbiological activity of 20-deoxy-epi-17-narasin (free acid) is described in Table IV. The conventional disc-diffusion method was used.

[5] = tested on: Staphlococcus aureus 3055; assay: disc-diffusion method, zone of inhibition; type: cell-based
Excerpt: as §2

[6] = tested on: Staphylococcus aureus 3074 (Penicillin G Resistant); assay: disc-diffusion method, zone of inhibition; type: cell-based
Excerpt: as §2

[7] = tested on: Staphylococcus aureus 3130 (Methicillin Resistant); assay: disc-diffusion method, zone of inhibition; type: cell-based
Excerpt: as §2

[8] = tested on: Streptococcus pyogenes (Group A); assay: disc-diffusion method, zone of inhibition; type: cell-based
Excerpt: as §2

[9] = tested on: Streptococcus sp. (Group D); assay: disc-diffusion method, zone of inhibition; type: cell-based
Excerpt: as §2

[10] = tested on: Actinomyces israelii W855; assay: agar-dilution MIC, anaerobic bacteria; type: cell-based; details: 24-hour incubation
Method: (§3) In one aspect, the deoxynarasin antibiotics inhibit the growth of anaerobic bacteria. The minimal inhibitory concentrations (MIC) at which 20-deoxy-epi-17-narasin (free acid) inhibits various anaerobic bacteria, determined by standard agar-dilution assay, are summarized in Table V. End points were read after 24-hour incubation period.

Bacteroides fragilis 111 = assay: agar-dilution MIC, anaerobic bacteria; type: cell-based; details: 24-hour incubation
Method: as §3

[11] = tested on: Clostridium septicum 1128; assay: agar-dilution MIC, anaerobic bacteria; type: cell-based; details: 24-hour incubation
Method: as §3

[12] = tested on: Eubacterium aerofaciens 1235; assay: agar-dilution MIC, anaerobic bacteria; type: cell-based; details: Collinsella aerofaciens, 24-hour incubation
Method: as §3

[13] = tested on: Peptococcus asaccharolyticus 1302; assay: agar-dilution MIC, anaerobic bacteria; type: cell-based; details: Peptoniphilus asaccharolyticus, 24-hour incubation
Method: as §3

Peptococcus prevoti 1281 = assay: agar-dilution MIC, anaerobic bacteria; type: cell-based; details: 24-hour incubation
Method: as §3

[14] = tested on: Peptostreptococcus anaerobius 1428; assay: agar-dilution MIC, anaerobic bacteria; type: cell-based; details: 24-hour incubation
Method: as §3

[15] = tested on: Peptostreptococcus intermedius 1264; assay: agar-dilution MIC, anaerobic bacteria; type: cell-based; details: 24-hour incubation
Method: as §3

[16] = tested on: Propionibacterium acnes 79; assay: agar-dilution MIC, anaerobic bacteria; type: cell-based; details: Cutibacterium acnes, 24-hour incubation
Method: as §3

[17] = tested on: Clostridium perfringens 81; assay: microbe, parasite or virus in culture; type: cell-based; details: Clostridium perfringens, 81, 24 h
M. gallisepticum = assay: in vitro broth-dilution MIC, Mycoplasma; type: cell-based; details: Mycoplasmoides gallisepticum
Excerpt: (§4) Activity against Mycoplasma is another useful aspect of the antimicrobial activity of the deoxynarasin antibiotics. Mycoplasma species, also known as pleuropneumonia-like (PPLO) organisms, are pathogenic to man and various animals. Agents active against PPLO organisms are especially needed by the poultry industry. The minimal inhibitory concentrations (MIC) of 20-deoxy-epi-17-narasin (free acid) against illustrative Mycoplasma species, as determined by in vitro broth-dilution studies, are summarized in Table VI.

M. hyorhinis = assay: in vitro broth-dilution MIC, Mycoplasma; type: cell-based; details: Mesomycoplasma hyorhinis
Excerpt: as §4

M. synoviae = assay: in vitro broth-dilution MIC, Mycoplasma; type: cell-based; details: Mycoplasmopsis synoviae
Excerpt: as §4

herpesvirus = assay: in vitro plaque suppression test; type: cell-based
Excerpt: (§5) The deoxynarasin antibiotics are also antiviral agents.

influenza A virus = assay: in vitro plaque suppression test; type: cell-based
Excerpt: as §5

rhinovirus type 3 = assay: in vitro plaque suppression test; type: cell-based; details: rhinovirus type 3, in vitro
Excerpt: as §5

vacinnia virus = assay: in vitro plaque suppression test; type: cell-based
Excerpt: as §5

CCC(C(=O)O)C1OC(C(C)C(O)C(C)C(=O)C(CC)C2OC3(C=CCC4(CCC(C)(C5CCC(O)(CC)C(C)O5)O4)O3)C(C)CC2C)C(C)CC1C (stereo not drawn) [20-deoxynarasin, 20-Deoxynarasin]
% Mortality (Eimeria tenella [1]): 0%
Weight Gain (Eimeria tenella [1]): 185 g
Lesion Score (Eimeria tenella [1]; maximum possible score = 4.00): 0.13
Ratio of Treated to Control, Molar % acetate (rumen flora; dose 0.1 mcg/ml): 0.9504
Ratio of Treated to Control, Molar % butyrate (rumen flora; dose 0.1 mcg/ml): 0.6870
Ratio of Treated to Control, Molar % propionate (rumen flora; dose 0.1 mcg/ml): 1.2148
Ratio of Treated to Control, Total VFA (rumen flora; dose 0.1 mcg/ml): 1.1892
Ratio of Treated to Control, Molar % acetate (rumen flora; dose 0.3 mcg/ml): 0.9084
Ratio of Treated to Control, Molar % butyrate (rumen flora; dose 0.3 mcg/ml): 0.4582
Ratio of Treated to Control, Molar % propionate (rumen flora; dose 0.3 mcg/ml): 1.3799
Ratio of Treated to Control, Total VFA (rumen flora; dose 0.3 mcg/ml): 1.1829
Ratio of Treated to Control, Molar % acetate (rumen flora; dose 1 mcg/ml): 0.8727
Ratio of Treated to Control, Molar % butyrate (rumen flora; dose 1 mcg/ml): 0.3942
Ratio of Treated to Control, Molar % propionate (rumen flora; dose 1 mcg/ml): 1.4597
Ratio of Treated to Control, Total VFA (rumen flora; dose 1 mcg/ml): 1.2096
solubility in nonpolar organic solvents (solubility): only slightly soluble
solubility in organic solvents (solubility): soluble
solubility in water (solubility): insoluble
stability in alcohols (stability in alcohols): unstable

CCC(C(=O)O)C1OC(C(C)C(O)C(C)C(=O)C(CC)C2OC3(C=CCC4(CCC(C)(C5CCC(O)(CC)C(C)O5)O4)O3)C(C)CC2C)C(C)CC1C (stereo not drawn) [20-deoxynarasin (Na salt)]
acute toxicity LD50 (mice): 5 mg/kg
minimal effective concentration (Eimeria tenella [2]; Eimeria tenella, read-out: level at which active against Eimeria tenella (as low as)): 0.2 µg/mL
half effective concentration, inhibition of cation transport ATPase [3]: 0.065 µg/mL
activation at 10 µM [4]: 43.8 ± 1.4%

CCC(C(=O)O)C1OC(C(C)C(O)C(C)C(=O)C(CC)C2OC3(C=CCC4(CCC(C)(C5CCC(O)(CC)C(C)O5)O4)O3)C(C)CC2C)C(C)CC1C (stereo not drawn) [20-deoxy-epi-17-narasin]
zone of inhibition at 30 µg/disc (Diplococcus pneumoniae; 30 mcg/disc): 13 mm
zone of inhibition at 300 µg/disc (Diplococcus pneumoniae; 300 mcg/disc): 16 mm
zone of inhibition at 30 µg/disc ([5]; 30 mcg/disc): 13.8 mm
zone of inhibition at 300 µg/disc ([5]; 300 mcg/disc): 16.9 mm
zone of inhibition at 30 µg/disc ([6]; 30 mcg/disc): 15.4 mm
zone of inhibition at 300 µg/disc ([6]; 300 mcg/disc): 19.5 mm
zone of inhibition at 30 µg/disc ([7]; 30 mcg/disc): 17.2 mm
zone of inhibition at 300 µg/disc ([7]; 300 mcg/disc): 19 mm
zone of inhibition at 30 µg/disc ([8]; 30 mcg/disc): 10 mm
zone of inhibition at 300 µg/disc ([8]; 300 mcg/disc): 12 mm
zone of inhibition at 30 µg/disc ([9]; 30 mcg/disc): 14.6 mm
zone of inhibition at 300 µg/disc ([9]; 300 mcg/disc): 17 mm
MIC [10]: 8 µg/mL (≈ 10.7 µM)
MIC (Bacteroides fragilis 111): > 128 µg/mL
MIC [11]: 16 µg/mL (≈ 21.4 µM)
MIC [12]: 16 µg/mL (≈ 21.4 µM)
MIC [13]: 8 µg/mL (≈ 10.7 µM)
MIC (Peptococcus prevoti 1281): 4 µg/mL (≈ 5.34 µM)
MIC [14]: 4 µg/mL (≈ 5.34 µM)
MIC [15]: 4 µg/mL (≈ 5.34 µM)
MIC [16]: 2 µg/mL (≈ 2.67 µM)
MIC [17]: 16 µg/mL (≈ 21.4 µM)
MIC (M. gallisepticum): 25 µg/mL (≈ 33.4 µM)
MIC (M. hyorhinis): 50 µg/mL (≈ 66.8 µM)
MIC (M. synoviae): 50 µg/mL (≈ 66.8 µM)
antiviral activity (plaque suppression) (herpesvirus): active
antiviral activity (plaque suppression) (influenza A virus): active
antiviral activity (plaque suppression) (rhinovirus type 3): active
antiviral activity (plaque suppression) (vacinnia virus): active
acute toxicity LD50 (mice): 201 mg/kg
level at which active against Eimeria tenella (as low as) (Eimeria tenella [2]): 0.2 ppm
Ratio of Treated to Control, Molar % acetate (rumen flora; dose 2 mcg/ml): 0.9581
Ratio of Treated to Control, Molar % butyrate (rumen flora; dose 2 mcg/ml): 0.9414
Ratio of Treated to Control, Molar % propionate (rumen flora; dose 2 mcg/ml): 1.0858
Ratio of Treated to Control, Total VFA (rumen flora; dose 2 mcg/ml): 1.0717
Ratio of Treated to Control, Molar % acetate (rumen flora; dose 5 mcg/ml): 0.9237
Ratio of Treated to Control, Molar % butyrate (rumen flora; dose 5 mcg/ml): 0.8201
Ratio of Treated to Control, Molar % propionate (rumen flora; dose 5 mcg/ml): 1.1836
Ratio of Treated to Control, Total VFA (rumen flora; dose 5 mcg/ml): 1.0487
Ratio of Treated to Control, Molar % acetate (rumen flora; dose 10 mcg/ml): 0.9093
Ratio of Treated to Control, Molar % butyrate (rumen flora; dose 10 mcg/ml): 0.6560
Ratio of Treated to Control, Molar % propionate (rumen flora; dose 10 mcg/ml): 1.2665
Ratio of Treated to Control, Total VFA (rumen flora; dose 10 mcg/ml): 1.0325
solubility in nonpolar organic solvents (solubility): only slightly soluble
solubility in organic solvents (solubility): soluble
solubility in water (solubility): insoluble
